Results taken from patent publication US8586579B2, “Anellated pyridine compounds” (Hoffmann-La Roche Inc., priority 2010, dated 2013).
Like-named read-outs stand apart in the source and are kept apart here.

Assays:
human 5-HT2A receptor = human 5-HT2A receptor (Homo sapiens (Human), UniProt P28223); assay: Radioligand binding assay, [3H]-ketanserin, human 5-HT2A receptor
Procedure: (§1) HEK293 EBNA cells were transiently transfected with expression plasmids encoding for the human D2 or D3 or for the human 5-HT2A receptor, respectively. The cells were harvested 48 h post-transfection, washed three times with cold PBS and stored at −80° C. prior to use. The pellet was suspended in cold 50 mM Tris-HCl buffer comprising 10 mM EDTA (pH 7.4) and was homogenized with a Polytron (Kinematica AG, Basel, Switzerland) for 20-30 sec at 12.000 rpm. After centrifugation at 48.000×g for 30 min at 4° C., the pellet was resuspended in cold 10 mM Tris-HCl buffer comprising 0.1 mM EDTA (pH 7.4), homogenized, and centrifuged as above. This pellet was further resuspended in a smaller volume of ice cold 10 mM Tris-HCl buffer comprising 0.1 mM EDTA (pH 7.4) and homogenized with a Polytron for 20-30 sec at 12.000 rpm. The protein content of this homogenate was determined with the Bio-Rad (Bradford) Protein Assay (Biorad Laboratories GmbH, München, Germany) according to the instructions of the manufacturer using gamma globulin as the standard. This homogenate was stored at −80° C. in aliquots and thawed immediately prior to use.
(§2) Aliquots of membrane preparations were thawed at RT, resuspended in assay buffer (D2, D3: 50 mM Tris-HCl, 120 mM NaCl, 5 mM MgCl2, 1 mM EDTA, 5 mM KCl, 1.5 mM CaCl2, pH=7.4; 5-HT2A: 50 mM Tris-HCl, 10 mM MgCl2, 1 mM EGTA, pH=7.4), homogenized with a Polytron for 20-30 sec at 12.000 rpm and adjusted to a final concentration of approximately 7.5 μg protein/well (D2, D3) and 15 μg protein/well (5-HT2A), respectively.
(§3) The binding affinity (Ki) of the compounds was determined using radioligand binding. Membranes were incubated in a total volume of 200 μl with a fixed concentration of radioligand (final concentration approximately 0.7 nM [^3H]-spiperone for D2, 0.5 nM [^3H]-spiperone for D3, and 1.1 nM [^3H]-ketanserin for 5-HT2A) and ten concentrations of test compound in ranging between 10 μM-0.1 nM for 1 h at RT. […] The nonspecific binding was determined with equally composed reaction mixtures in the presence of 10 μM unlabelled spiperone. Per well 45 μl of Microscint 40 (Perkin Elmer, Schwerzenbach, Switzerland) was added, plates for sealed, shaken for 20 min and counted for 3 min on a Topcount Microplate Scintillation Counter (Can berra Packard SA, Zürich, Switzerland) with quenching correction.
(§4) The CPM value for each duplicate of a concentration of competing compound was averaged (y1), then the % specific binding was calculated according to the equation (((y1−non-specific)/(total binding−non-specific))×100). Graphs were plotted with the % specific binding using XLfit, a curve fitting program that iteratively plots the data using Levenberg-Marquardt algorithm. The single site competition analysis equation used was y=A+((B−A)/(1+((x/C)D))), where y is the % specific binding, A is the minimum y, B is the maximum y, C is the IC50, x is the log 10 of the concentration of the competing compound and D is the slope of the curve (the Hill Coefficient). […] The affinity constant (K) was calculated using the Cheng-Prusoff equation Ki=(IC50/1+([L]/Kd), where [L] is the concentration of radioligand and Kd is the dissociation constant of the radioligand at the receptor as determined by the saturation isotherm.

human D2 receptor = human D2 receptor (Homo sapiens (Human), UniProt P14416); assay: Radioligand binding assay, [3H]-spiperone, human D2 receptor; settings: membranes of HEK293 EBNA cells expressing human D2; 0.7 nM [3H]-spiperone
Chain of human D2 receptor (P14416 whole entry): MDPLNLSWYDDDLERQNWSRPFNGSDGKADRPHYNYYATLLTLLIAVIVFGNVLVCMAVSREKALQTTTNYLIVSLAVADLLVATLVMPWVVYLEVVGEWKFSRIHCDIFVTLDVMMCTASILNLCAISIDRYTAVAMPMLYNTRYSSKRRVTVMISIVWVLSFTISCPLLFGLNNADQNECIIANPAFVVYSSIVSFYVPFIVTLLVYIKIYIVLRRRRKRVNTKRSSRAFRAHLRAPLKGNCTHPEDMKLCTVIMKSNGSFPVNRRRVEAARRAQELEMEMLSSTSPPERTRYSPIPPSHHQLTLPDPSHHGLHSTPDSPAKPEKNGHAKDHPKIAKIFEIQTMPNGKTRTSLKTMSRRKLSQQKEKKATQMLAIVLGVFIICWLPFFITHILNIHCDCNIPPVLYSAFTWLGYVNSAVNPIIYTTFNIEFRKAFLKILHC
Procedure: as §1, §2, §3
as §4, with “algorithm.” for “algorithm. The single site competition analysis equation used was y=A+((B−A)/(1+((x/C)D))), where y is the % specific binding, A is the minimum y, B is the maximum y, C is the IC50, x is the log 10 of the concentration of the competing compound and D is the slope of the curve (the Hill Coefficient).”

human D3 receptor = human D3 receptor (Homo sapiens (Human), UniProt P35462); assay: Radioligand binding assay, [3H]-spiperone, human D3 receptor; settings: membranes of HEK293 EBNA cells expressing human D3; 0.5 nM [3H]-spiperone
Chain of human D3 receptor (P35462 whole entry): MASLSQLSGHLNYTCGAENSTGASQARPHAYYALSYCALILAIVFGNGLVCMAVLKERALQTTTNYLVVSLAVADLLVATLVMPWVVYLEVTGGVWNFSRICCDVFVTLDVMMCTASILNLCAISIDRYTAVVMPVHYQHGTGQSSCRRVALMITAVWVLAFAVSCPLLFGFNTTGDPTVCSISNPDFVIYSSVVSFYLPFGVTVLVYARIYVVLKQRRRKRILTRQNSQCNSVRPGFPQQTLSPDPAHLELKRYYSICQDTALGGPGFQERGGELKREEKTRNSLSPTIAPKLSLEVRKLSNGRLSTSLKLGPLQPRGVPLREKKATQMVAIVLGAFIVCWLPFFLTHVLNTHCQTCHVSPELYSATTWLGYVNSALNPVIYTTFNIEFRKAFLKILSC
Procedure: as §1, §2, §3, §4

[1] = membranes of HEK293 EBNA cells expressing human 5-HT2A, 1.1 nM [3H]-ketanserin

Chain of human 5-HT2A receptor (P28223 whole entry): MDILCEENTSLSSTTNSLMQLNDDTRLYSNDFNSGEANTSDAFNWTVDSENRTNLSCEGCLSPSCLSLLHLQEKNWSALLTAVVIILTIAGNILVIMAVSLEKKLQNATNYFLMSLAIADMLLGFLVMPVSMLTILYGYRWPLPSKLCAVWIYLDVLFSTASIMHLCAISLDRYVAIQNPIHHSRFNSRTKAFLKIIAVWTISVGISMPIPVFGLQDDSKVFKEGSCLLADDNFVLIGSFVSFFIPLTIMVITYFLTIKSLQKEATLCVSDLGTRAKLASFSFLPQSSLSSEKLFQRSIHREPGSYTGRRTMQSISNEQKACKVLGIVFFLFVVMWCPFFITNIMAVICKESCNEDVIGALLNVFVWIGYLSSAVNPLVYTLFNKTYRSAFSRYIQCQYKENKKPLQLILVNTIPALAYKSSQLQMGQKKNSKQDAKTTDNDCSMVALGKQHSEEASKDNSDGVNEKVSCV

O=C(N[C@H]1CC[C@H](CCN2CCN(c3nccc4c3CCO4)CC2)CC1)C1CCCO1 (mixture of isomers) [Example 43, trans-N-(4-{2-[4-(2,3-Dihydrofuro[3,2-c]pyridin-4-yl)-piperazin-1-yl]-ethyl}-cyclohexyl)-rac-tetrahydrofuran-2-carboxamide]
melting point: 176.5 °C
Ki (human 5-HT2A receptor; [1]): 6.3 nM

COCC(=O)N[C@H]1CC[C@H](CCN2CCN(c3nccc4sccc34)CC2)CC1 [Example 22, 2-Methoxy-N-{trans-4-[2-(4-thieno[3,2-c]pyridin-4-yl-piperazin-1-yl)-ethyl]-cyclohexyl}-acetamide]
Ki (human D2 receptor): 220 nM
Ki (human D3 receptor): 3.2 nM
Ki (human 5-HT2A receptor; [1]): 2.2 nM

O=C(CC1CCOCC1)N[C@H]1CC[C@H](CCN2CCN(c3nccc4sccc34)CC2)CC1 [Example 23, 2-(Tetrahydro-pyran-4-yl)-N-{trans-4-[2-(4-thieno[3,2-c]pyridin-4-yl-piperazin-1-yl)-ethyl]-cyclohexyl}-acetamide]
Ki (human D2 receptor): 144 nM
Ki (human D3 receptor): 2.7 nM
Ki (human 5-HT2A receptor; [1]): 3 nM

O=C(N[C@H]1CC[C@H](CCN2CCN(c3nccc4sccc34)CC2)CC1)C1CCOCC1 [Example 24, Tetrahydro-pyran-4-carboxylic acid {trans-4-[2-(4-thieno[3,2-c]pyridin-4-yl-piperazin-1-yl)-ethyl]-cyclohexyl}-amide]
Ki (human D2 receptor): 992 nM
Ki (human D3 receptor): 3.6 nM
Ki (human 5-HT2A receptor): 1.7 nM

CO[C@@H]1CC[C@@H](CC(=O)N[C@H]2CC[C@H](CCN3CCN(c4nccc5sccc45)CC3)CC2)C1 [Example 25, 2-((1R,3R)-3-Methoxy-cyclopentyl)-N-{trans-4-[2-(4-thieno[3,2-c]pyridin-4-yl-piperazin-1-yl)-ethyl]-cyclohexyl}-acetamide]
Ki (human D2 receptor): 234 nM
Ki (human D3 receptor): 2.7 nM
Ki (human 5-HT2A receptor; [1]): 4.9 nM

CO[C@H]1CC[C@H](CC(=O)N[C@H]2CC[C@H](CCN3CCN(c4nccc5sccc45)CC3)CC2)C1 [Example 26, 2-((1S,3S)-3-Methoxy-cyclopentyl)-N-{trans-4-[2-(4-thieno[3,2-c]pyridin-4-yl-piperazin-1-yl)-ethyl]-cyclohexyl}-acetamide]
Ki (human D2 receptor): 246 nM
Ki (human D3 receptor): 3 nM
Ki (human 5-HT2A receptor; [1]): 4.3 nM

O=C(CO)N[C@H]1CC[C@H](CCN2CCN(c3nccc4sccc34)CC2)CC1 [Example 27, 2-Hydroxy-N-{trans-4-[2-(4-thieno[3,2-c]pyridin-4-yl-piperazin-1-yl)-ethyl]-cyclohexyl}-acetamide]
Ki (human D2 receptor): 218 nM
Ki (human D3 receptor): 1.4 nM
Ki (human 5-HT2A receptor; [1]): 1.4 nM

O=C(C[C@H]1CC[C@H](O)CC1)N[C@H]1CC[C@H](CCN2CCN(c3nccc4sccc34)CC2)CC1 [Example 28, 2-(trans-4-Hydroxy-cyclohexyl)-N-{trans-4-[2-(4-thieno[3,2-c]pyridin-4-yl-piperazin-1-yl)-ethyl]-cyclohexyl}-acetamide]
Ki (human D2 receptor): 392 nM
Ki (human D3 receptor): 6 nM
Ki (human 5-HT2A receptor; [1]): 4 nM

O=C(N[C@H]1CC[C@H](CCN2CCN(c3nccc4occc34)CC2)CC1)c1ccnc2ccccc12 [Example 29, Quinoline-4-carboxylic acid {trans-4-[2-(4-furo[3,2-c]pyridin-4-yl-piperazin-1-yl)-ethyl]-cyclohexyl}-amide]
Ki (human D2 receptor): 461 nM
Ki (human D3 receptor): 23.2 nM
Ki (human 5-HT2A receptor; [1]): 5.3 nM

CS(=O)(=O)N[C@H]1CC[C@H](CCN2CCN(c3nccc4sccc34)CC2)CC1 [Example 30, N-{trans-4-[2-(4-Thieno[3,2-c]pyridin-4-yl-piperazin-1-yl)-ethyl]-cyclohexyl}-methanesulfonamide]
Ki (human D2 receptor): 265 nM
Ki (human D3 receptor): 4.3 nM
Ki (human 5-HT2A receptor; [1]): 2.9 nM

CCS(=O)(=O)N[C@H]1CC[C@H](CCN2CCN(c3nccc4sccc34)CC2)CC1 [Example 31, Ethanesulfonic acid {trans-4-[2-(4-thieno[3,2-c]pyridin-4-yl-piperazin-1-yl)-ethyl]-cyclohexyl}-amide]
Ki (human D2 receptor): 217 nM
Ki (human D3 receptor): 4.3 nM
Ki (human 5-HT2A receptor; [1]): 2.9 nM
